Experimental data: patent publication US20090143279A1 (priority 2007, published 2009)
Where “and” joins values, the source holds several entries; their conditions need not be identical. Equal entries are not always repeated. Where a SMILES comes first, the peptide text is derived from it.

system: cytochrome c; format: cell-based, mouse; conditions: not given

**Q.** Which results are given for `Oc1ccc2c3c1O[C@H]1[C@@H](O)CC[C@@]4(O)[C@@H](C2)N(CC2CCC2)CC[C@]314` [nalbuphine]?
**A.** cyt c: 0.276; cyt c (composite Z-score vs DMSO): −0.613

**Q.** How did the cyt c turn out when `C=CCN1CC[C@]23c4c5ccc(O)c4O[C@H]2C(=O)CC[C@@]3(O)[C@H]1C5` [naloxone] was run?
**A.** Its cyt c is 0.362 and 0.610.

**Q.** How did the cyt c turn out when `COc1ccc(CCC(=O)c2c(O)cc(O[C@@H]3O[C@H](CO)[C@@H](O)[C@H](O)[C@H]3O[C@@H]3O[C@@H](C)[C@H](O)[C@@H](O)[C@H]3O)cc2O)cc1O` [neohesperidin dihydrochalcone] was run?
**A.** Its cyt c is 0.454.

**Q.** With `COc1ccc2c3c1O[C@H]1[C@@H](O)CC=C4[C@@H](C2)N(C)CC[C@]431` [neopine] as the molecule, how does the cyt c read?
**A.** Its cyt c is 0.421.

**Q.** With `O=C(O)c1cccnc1` [niacin] as the molecule, how does the “cyt c (composite Z-score vs DMSO)” value read?
**A.** The value was 0.736 and 1.132.

**Q.** `CC1CS(=O)(=O)CCN1/N=C/c1ccc([N+](=O)[O-])o1` (stereo not shown) [nifurtimox] was tested. Which cyt c did it give?
**A.** The cyt c was 0.004.

**Q.** Which cyt c does the source give for `COc1ccc(-c2cc(=O)c3c(OC)c(OC)c(OC)c(OC)c3o2)cc1OC` [nobiletin] here?
**A.** The cyt c was 0.396.

**Q.** For `C#C[C@]1(O)CC[C@H]2[C@@H]3CCC4=CC(=O)CC[C@@H]4[C@H]3CC[C@@]21C` [norethindrone], which cyt c is on record?
**A.** The cyt c was 0.903.

**Q.** What about the “cyt c (composite Z-score vs DMSO mock-treated wells)” value of the same molecule?
**A.** The value was 0.056.

**Q.** For `C#C[C@]1(O)CC[C@H]2[C@@H]3CCC4=C(CCC(=O)C4)[C@H]3CC[C@@]21C` [norethynodrel], which cyt c is on record?
**A.** The cyt c was −0.145.

**Q.** And the “cyt c (composite Z-score vs DMSO mock-treated wells)” value?
**A.** The value was −0.058.

**Q.** With `CNCCC=C1c2ccccc2CCc2ccccc21` [nortriptyline] as the molecule, how does the “cyt c (composite Z-score vs DMSO)” value read?
**A.** The value was 0.157 and 0.136.

**Q.** Which cyt c does the source give for `CC1(C)CC[C@]2(C(=O)O)CC[C@]3(C)C(=CC[C@@H]4[C@@]5(C)CC[C@H](O)C(C)(C)[C@@H]5CC[C@]43C)[C@@H]2C1` [oleanolic acid] here?
**A.** Its cyt c is 0.866.

**Q.** Which cyt c does the source give for `C=CCOc1ccccc1OCC(O)CNC(C)C` (stereo not shown) [oxprenolol] here?
**A.** The cyt c was 0.047.

**Q.** For `CCN(CC)CC#CCOC(=O)C(O)(c1ccccc1)C1CCCCC1` (stereo not shown) [oxybutynin], which cyt c is on record?
**A.** The cyt c was −0.352.

**Q.** `COc1ccc(C(C)=O)c(O)c1` [paeonol] was tested. Which cyt c did it give?
**A.** Its cyt c is 0.306.

**Q.** `Oc1ccc(Cl)cc1` [parachlorophenol] was tested. Which cyt c did it give?
**A.** Its cyt c is 0.036.

**Q.** With `[H]/N=C(/N)N/C(=N/[H])NCCc1ccccc1` [phenformin] as the molecule, how does the cyt c read?
**A.** The cyt c was 0.241.

**Q.** `CC(N)C(O)c1ccccc1` (stereo not shown) [phenylpropanolamine] was tested. Which cyt c did it give?
**A.** The cyt c was 0.947.

**Q.** How did the cyt c turn out when `CCC1(c2ccccc2)C(=O)NCNC1=O` [primidone] was run?
**A.** The cyt c was 0.296 and 0.193.

**Q.** With `CCC(=O)c1ccc2c(c1)N(CC(C)N(C)C)c1ccccc1S2` (stereo not shown) [propiomazine] as the molecule, how does the cyt c read?
**A.** Its cyt c is −0.368.

**Q.** For `CC(C)c1cccc(C(C)C)c1O` [propofol], which “cyt c (composite Z-score vs DMSO)” value is on record?
**A.** The value was 0.242.

**Q.** Which cyt c does the source give for `CCCc1cc(=O)[nH]c(=S)[nH]1` [propylthiouracil] here?
**A.** Its cyt c is 0.762 and 0.717.

**Q.** For `CNCCCC1c2ccccc2C=Cc2ccccc21` [protriptyline], which “cyt c (composite Z-score)” value is on record?
**A.** The value was −1.335.

**Q.** `NC(=O)c1ncn([C@@H]2O[C@H](CO)[C@@H](O)[C@H]2O)n1` [ribavirin] was tested. Which cyt c did it give?
**A.** The cyt c was −0.336.

**Q.** For `CO[C@H]1/C=C/O[C@@]2(C)Oc3c(C)c(O)c4c(O)c(c(/C=N/N5CCN(C)CC5)c(O)c4c3C2=O)NC(=O)/C(C)=C\C=C\[C@H](C)[C@H](O)[C@@H](C)[C@@H](O)[C@@H](C)[C@H](OC(C)=O)[C@@H]1C` [rifampicin], which cyt c is on record?
**A.** The cyt c was 0.319.

**Q.** For `Cc1nc2n(c(=O)c1CCN1CCC(c3noc4cc(F)ccc34)CC1)CCCC2` [risperidone], which “cyt c (composite Z-score vs DMSO)” value is on record?
**A.** Its value is 0.243.

**Q.** How did the cyt c turn out when `CN(CCOc1ccc(CC2SC(=O)NC2=O)cc1)c1ccccn1` (stereo not shown) [rosiglitazone] was run?
**A.** The cyt c was −0.121.

**Q.** How did the “cyt c (composite Z-score vs DMSO)” value turn out when `O=C1NS(=O)(=O)c2ccccc21` [saccharin] was run?
**A.** The value was 0.336.

**Q.** For `CO[C@H]1C[C@H](O[C@@H]2/C(C)=C/C[C@@H]3C[C@@H](C[C@]4(CC[C@H](C)[C@@H](C5CCCCC5)O4)O3)OC(=O)[C@@H]3C=C(C)/C(=N/O)[C@H]4OC/C(=C\C=C\[C@@H]2C)[C@]43O)O[C@@H](C)[C@@H]1O` [selamectin], which cyt c is on record?
**A.** The cyt c was 0.343.

**Q.** With `COc1cc(C2Oc3cc([C@H]4Oc5cc(O)cc(O)c5C(=O)[C@@H]4O)ccc3OC2CO)ccc1O` (stereo partly shown) [silybin] as the molecule, how does the cyt c read?
**A.** The cyt c was 0.150.

**Q.** For `O=C([O-])c1ccccc1O.[Na+]` [sodium salicylate], which cyt c is on record?
**A.** The cyt c was 0.607.

**Q.** For `O=C1C[C@@H]2OCC=C3CN4CC[C@]56c7ccccc7N1[C@H]5[C@H]2[C@H]3C[C@H]46` [strychnine], which “cyt c (composite Z-score vs DMSO mock-treated wells)” value is on record?
**A.** The value was 0.031.

**Q.** For `Nc1c2c(nc3ccccc13)CCCC2` [tacrine], which “cyt c (composite Z-score vs DMSO)” value is on record?
**A.** The value was −0.250.

same assay, conditions: composite Z-score vs mock-treated (DMSO) wells; concentration of each compound in μM

**Q.** Which cyt c does the source give for `COc1ccccc1N1CCN(CC(O)COc2cccc3ccccc23)CC1` (stereo not shown) [naftopidil] here?
**A.** The cyt c was 0.382.

**Q.** With `COC(=O)Nc1nc2ccc([S+]([O-])c3ccccc3)cc2[nH]1` (stereo not shown) [oxfendazole, reference compound] as the molecule, how does the cyt c read?
**A.** The cyt c was −0.224.

**Q.** `O=CC=Cc1ccc(O)cc1` [p-hydroxycinnamaldehyde] was tested. Which cyt c did it give?
**A.** The cyt c was −0.079.

**Q.** Which cyt c does the source give for `N[C@@H](Cc1ccccc1)C(=O)N[C@@H](Cc1ccc(O)cc1)C(=O)O` [phenylalanyltyrosine] (H-Phe-Tyr-OH) here?
**A.** Its cyt c is −0.342.

**Q.** How did the cyt c turn out when `CCc1ccc(CCOc2ccc(CC3SC(=O)NC3=O)cc2)nc1` (stereo not shown) [pioglitazone] was run?
**A.** The cyt c was −0.742.

**Q.** `CC[C@H](C)C(=O)O[C@H]1C[C@H](O)C=C2C=C[C@H](C)[C@H](CC[C@@H](O)C[C@@H](O)CC(=O)O)[C@H]21` [pravastatin, reference compound] was tested. Which cyt c did it give?
**A.** Its cyt c is 0.972.

**Q.** `CCC(NC(C)C)C(O)c1ccc(O)c2[nH]c(=O)ccc12` (stereo not shown) [procaterol] was tested. Which cyt c did it give?
**A.** Its cyt c is −0.168.

**Q.** `CC(O)Cn1cnc2c1c(=O)n(C)c(=O)n2C` (stereo not shown) [proxyphylline] was tested. Which cyt c did it give?
**A.** The cyt c was −0.574.

**Q.** With `CC(=O)SCC(Cc1ccccc1)C(=O)NCC(=O)OCc1ccccc1` (stereo not shown) [racecadotril] as the molecule, how does the cyt c read?
**A.** Its cyt c is −0.249.

**Q.** How did the cyt c turn out when `O=C(NC(Cc1cc(=O)[nH]c2ccccc12)C(=O)O)c1ccc(Cl)cc1` (stereo not shown) [rebamipide] was run?
**A.** The cyt c was −0.372.

**Q.** With `CO[C@H]1/C=C/O[C@@]2(C)Oc3c(C)c(O)c4c(O)c(c5c(nc6cc(C)ccn65)c4c3C2=O)NC(=O)/C(C)=C\C=C\[C@H](C)[C@H](O)[C@@H](C)[C@@H](O)[C@@H](C)[C@H](OC(C)=O)[C@@H]1C` [rifaximin] as the molecule, how does the cyt c read?
**A.** Its cyt c is −0.471.

**Q.** `CC(NCCc1ccc(O)cc1)C(O)c1ccc(O)cc1` (stereo not shown) [ritodrine] was tested. Which cyt c did it give?
**A.** The cyt c was −0.072.

**Q.** Which cyt c does the source give for `C[C@@H]1O[C@@H](OC[C@H]2O[C@@H](Oc3c(-c4ccc(O)c(O)c4)oc4cc(O)cc(O)c4c3=O)[C@H](O)[C@@H](O)[C@@H]2O)[C@H](O)[C@H](O)[C@H]1O` [rutoside] here?
**A.** Its cyt c is −0.012.

**Q.** With `O=C(O)c1cn(-c2ccc(F)cc2)c2cc(N3CCNCC3)c(F)cc2c1=O` [sarafloxacin] as the molecule, how does the cyt c read?
**A.** The cyt c was 0.290.

**Q.** For `O=C1C=C2C=C[C@@H]3C[C@@]2(O1)[C@H]1CCCCN31` [securinine], which cyt c is on record?
**A.** The cyt c was −0.481.

**Q.** With `CC(C)CC(N(C)C)C1(c2ccc(Cl)cc2)CCC1` (stereo not shown) [sibutramine] as the molecule, how does the cyt c read?
**A.** Its cyt c is 0.351.

**Q.** `CC(C)NCC(O)c1ccc(NS(C)(=O)=O)cc1` (stereo not shown) [sotalol] was tested. Which cyt c did it give?
**A.** Its cyt c is 0.501.

same assay, conditions: normalized score (composite Z-score vs DMSO mock-treated wells); compound concentration (μM)

**Q.** `CCN[C@@H]1C[C@H](N)[C@@H](O[C@H]2OC(CN)=CC[C@H]2N)[C@H](O)[C@H]1O[C@H]1OC[C@](C)(O)[C@H](NC)[C@H]1O` [netilmicin] was tested. Which cyt c did it give?
**A.** Its cyt c is 0.156.

**Q.** For `CC(C)(C)NC[C@H](O)COc1ccccc1C1CCCC1` [penbutolol], which cyt c is on record?
**A.** Its cyt c is 0.099.

**Q.** For `CCOC(=O)Oc1c(OC)cc(C(=O)O[C@@H]2C[C@@H]3CN4CCc5c([nH]c6cc(OC)ccc56)[C@H]4C[C@@H]3[C@H](C(=O)OC)[C@H]2OC)cc1OC` [syrosingopine], which cyt c is on record?
**A.** The cyt c was 1.051.
